Test results from article PMC7893776, “Selecting an anti-malarial clinical candidate from two potent dihydroisoquinolones” (Malaria Journal, 2021).

Legend:
Kinetic solubility = type: physicochemical
Experimental: Solubility assays were carried out on a Biomek FX lab automation workstation (Beckman Coulter, Inc., Fullerton, CA) using µSOL Evolution software (pION Inc., Woburn, MA). Compound stock (10 mM in DMSO, 10 µL) was added to 1-propanol (190 µL) to make a reference stock plate. Reference stock solution (5 µL) was mixed with 1-propanol (70 µL) and citrate phosphate buffered saline (75 µL) to make the reference plate and the UV spectrum (250 nm–500 nm) of the […] was read. Test compound stock (10 mM in DMSO, 6 µL) was added to buffer (594 µL) in a 96-well storage plate and mixed. The storage plate was sealed and incubated at room temperature for 18 h. The suspension was then filtered through a 96-well filter plate (pION Inc., Woburn, MA). Filtrate (75 µL) was mixed with 1-propanol (75 µL) to make the sample plate, and the UV spectrum (250 nm – 500 nm) of the sample plate was read. Calculation was carried out by µSOL Evolution software based on the […] (area under curve) of UV spectrum of the sample plate and the reference plate. All compounds were tested in triplicate.

Caco-2 cells = assay: Caco-2 permeability; type: in vitro ADME; settings: for Caco-2 Efflux Ratio: B→A / A→B
Experimental: Caco-2 cells were maintained at 37 °C in a humidified incubator with an atmosphere of 5% CO2. The cells were cultured in Eagle's Minimum Essential Medium (EMEM) containing 20% fetal bovine serum (FBS) in 75 cm^2 flasks, supplemented with 100 units/ml of penicillin and 100 µg/mL of streptomycin. The Caco-2 cells were seeded onto inserts of a 96-well plate (HTS-Transwell inserts, surface area: 0.143 cm^2, Corning) at a cell density of 0.5 × 10^5 cells/insert. The culture medium was replaced every 2 days, and the cells were maintained for 7 days at 37 °C and 5% CO2. Caco-2 cell monolayers with trans epithelial electrical resistance (TEER) values greater than 400 Ω cm^2 were used for the subsequent assays. The permeability assay was initiated by adding an appropriate volume of HBSS/HEPES containing test compounds to either the apical (A to B) or basolateral (B to A) side of the monolayer, then adding the blank HBSS/HEPES buffer in the receiving compartment, the basolateral or apical side of the monolayer. The Caco-2 cell monolayers were then incubated for 2 h at 37 °C. To make a sample plate, fractions were collected from the basolateral side or apical side and quenched by adding onefold volume of acetonitrile with internal standard (2 µM warfarin) to each well. In a reference plate, the above HBSS/HEPES buffer containing test compounds were diluted with quenching solvent the same as that in the sample plate. 10 µL of supernatants were injected and analysis by UPLC/MS (Waters; Milford, MA). The test compound concentrations were quantified by comparing the sample well to the reference well via peak areas. The A→B (or B→A) apparent permeability coefficients (Papp, 10^–6 cm/s) of each compound were calculated using the equation, Papp = dQ/dt × 1/AC0. The flux of a drug across the monolayer was dQ/dt (µmol/s). The initial drug concentration on the apical or basolateral side was C0 (µM). The surface area of the monolayer was A (cm^2). The efflux ratio is the ratio of apparent permeability for a test compound in the basolateral to apical (B → A) direction relative to that in the A → B direction. All compounds were tested in triplicate.

dog plasma proteins = assay: Plasma protein binding (RED), dog; type: in vitro ADME; settings: average of 20, 4, 0.8 µM
Experimental: (§1) A Rapid Equilibrium Dialysis (RED) Plate (Thermo Scientific, catalog #, PI-90007) was used to determine the percentage of compound binding to plasma proteins. The positive control for this experiment was propranolol-HCl (10 mM in DMSO) and the internal standard was warfarin (2 µM in methanol). 10 mM stocks of compound in DMSO were diluted with DMSO acetonitrile (1:4, v:v) to three different intermediate concentrations: high (2 mM), medium (0.4 mM) and low (0.08 mM). A 10 mM stock of propranolol in DMSO was diluted to 0.4 mM concentration in DMSO:acetonitrile (1:4 v:v). In 16 Eppendorf tubes, the control (10 µL) or each of three compound dilutions (10 µL) were each added to separate aliquots of mouse, rat, dog, and human plasma (990 µL). In the RED plate, potassium phosphate buffer (500 µL, 0.1 M, pH 7.4, 37 °C) was placed in every white well and each plasma/compound mixture was added to each of 3 red wells. […] The compounds and internal standard were detected by selected ion recording (SIR). Using the peak area ratio of compound to warfarin from the SIR spectra, the percentage of free compound [1] and bound compound [2] were calculated using the following equations: (1) % free = (concentration buffer chamber/concentration plasma chamber)*100, and (2) % bound = 100 − % free.

human plasma proteins = assay: Plasma protein binding (RED), human; type: in vitro ADME; settings: average of 20, 4, 0.8 µM
Experimental: as §1

Structure (SMILES)	Kinetic solubility (Kinetic solubility; pH 3) [µM]	Kinetic solubility (Kinetic solubility; pH 5) [µM]	Kinetic solubility (Kinetic solubility; pH 7.4) [µM]	Permeability, Caco-2 (Caco-2 cells; Apical to Basal)	Permeability, Caco-2 (Caco-2 cells; Basolateral to Apical)	Caco-2 Efflux Ratio (Caco-2 cells)	% bound (dog plasma proteins) [%]	% bound (human plasma proteins) [%]
N#Cc1cc(NC(=O)C2c3ccccc3C(=O)N(CC(F)(F)F)C2c2cn[nH]c2)ccc1F (racemic) [(r)-SJ311]	80 ± 7	80 ± 7	66 ± 7	12.5 ± 0.7 10^–6 cm/s	16.6 ± 2.0 10^–6 cm/s	1.34 ± 0.21	90.0 ± 1.0	95.3 ± 0.6
N#Cc1cc(NC(=O)C2c3ccccc3C(=O)N(CC(F)(F)F)C2c2cccnc2)ccc1F (racemic) [(r)-SJ733]	84 ± 3	84 ± 3	65 ± 4	9.4 ± 1.6 10^–6 cm/s	11.0 ± 1.6 10^–6 cm/s	1.17 ± 0.04	88.3 ± 3.1	94.3 ± 0.6
